# Reference: patent publication US10941216B2, “Engineered polypeptide conjugates and methods for making thereof using transglutaminase” (PFIZER INC., priority 2010, dated 2021)
# Read-outs that look alike come from different tables or passages of the source. Numbered stars: 1 amine (or outer) side, 2 acyl side, 3 side chain; on linkers, the order of the positions; unused ones are H or OH. Square brackets hold non-standard residues; d marks the D form. Peptide text beside a SMILES is read from it. * marks the point of attachment. ξ: configuration not given here. Dolaproine = CO[C@@H]([C@@H]1CCCN1)[C@@H](C)C(=O)O; X1 = COC([C@@H](C)C(=O)[*:2])[C@@H]1CCCN1[*:1]; Dil = CC[C@H](C)[C@H](NC)[C@@H](CC(=O)O)OC; PABC = O=C(OCc1ccc(N[*:1])cc1)[*:2]; Doe = c1ccc(C[C@H](N*)c2nccs2)cc1; X2 = C[C@@H](N*)[C@@H](O)c1ccccc1; Cit = NC(=O)NCCC[C@H](N)C(=O)O; NMeV = CN[C@H](C(=O)O)C(C)C; PEG3 = NCCOCCOCCOCCC(=O)O; ξK = NCCCCC(N)C(=O)O; Ahx = NCCCCCC(=O)O; βAla = NCCC(=O)O
# Assays:
# Test in all cases: In vitro cytotoxicity, CellTiter-Glo
# Type in all cases: cell-based
# [1] = tested on: SW620 cells; settings: Homo sapiens
# Description: (§1) In vitro cytotoxicity assays were carried out using various antibodies, payloads (i.e., agent moieties), and amine donor units. For mAb2 (a chimeric IgG1 antibody), target expressing (A431, OVCAR3, BxPC3 and HT-29) or non-expressing (SW620) cells were seeded on white walled clear bottom plates at 2000 cells/well for 24 hours before treatment. […] Cell viability was determined by CellTiter-Glo® Luminescent Cell Viability Assay 96 (Promega, Madison Wis.) 96 hours after treatment. […] IC50 was calculated by Prism software.
# [2] = tested on: BxPC3 cells; settings: Homo sapiens, BXPC-3, 96 h, read-out: BxPC3 Antibody IC50 (nM)
# Description: as §1
# [3] = tested on: HT-29 cells; settings: Homo sapiens; HT-29, target expressing, 96 hours; read-out: HT-29 Antibody IC50
# Description: as §1
# [4] = tested on: A431 cells; settings: Homo sapiens
# Description: as §1
# [5] = SW-620, SW620, target non-expressing, 96 hours, read-out: SW620 Antibody IC50
# [6] = A-431, A431, target expressing, 96 hours, read-out: A431 Antibody IC50
# [7] = A-431, 96 h, read-out: A431 Antibody IC50 (nM)
SMILES,"IC50 [1, 5]",IC50 [2],"IC50 ([1]; SW-620, 96 h, read-out: SW620 Antibody IC50 (nM))",IC50 [3],"IC50 [4, 6]","IC50 [4, 7]"
"CC[C@H](C)[C@@H]([C@@H](CC(=O)N1CCC[C@H]1C(OC)[C@@H](C)C(=O)N[C@@H](Cc1ccccc1)C(=O)O)OC)N(C)C(=O)[C@@H](NC(=O)[C@H](C(C)C)N(C)C(=O)CCCCCN)C(C)C (stereo partly drawn) [Sample 23, Aminocaproyl-MMAF] (H-[Ahx][NMeV]V[Dil][X1]F-OH)",0.01 nM,0.28 nM,–,–,–,–
"CC[C@H](C)[C@@H]([C@@H](CC(=O)N1CCC[C@H]1[C@H](OC)[C@@H](C)C(=O)N[C@@H](Cc1ccccc1)C(=O)O)OC)N(C)C(=O)[C@@H](NC(=O)[C@H](C(C)C)N(C)C(=O)OCc1ccc(NC(=O)[C@H](CCCNC(N)=O)NC(=O)[C@@H](NC(=O)CCCCCN)C(C)C)cc1)C(C)C [Sample 24, VC-PABC-MMAF] (H-[Ahx]V[Cit][PABC][NMeV]V[Dil][Dolaproine]F-OH)",–,427 nM,483 nM,–,–,–
"CO[C@H]1/C=C\C=C(/C)C(=O)NC2=CC(=O)C(NCCCCN)=C(C[C@@H](C)C[C@H](OC)[C@H](O)[C@@H](C)/C=C(\C)[C@@H]1OC(N)=O)C2=O [Sample 25, Putrescinyl-Geldanamycin]",> 1000 nM,–,–,318 nM,> 1000 nM,–
"CC[C@H](C)[C@@H]([C@@H](CC(=O)N1CCC[C@H]1[C@H](OC)[C@@H](C)C(=O)N[C@@H](Cc1ccccc1)c1nccs1)OC)N(C)C(=O)[C@@H](NC(=O)[C@H](C(C)C)N(C)C(=O)OCc1ccc(NC(=O)[C@H](CCCNC(N)=O)NC(=O)[C@@H](NC(=O)[C@H](CCCCN)NC(C)=O)C(C)C)cc1)C(C)C [Sample 27, AcLys-VC-PABC-MMAD] (Ac-KV[Cit][PABC][NMeV]V[Dil][Dolaproine]-Doe)",–,–,–,0.189 nM,–,0.003 nM
"CC[C@H](C)[C@@H]([C@@H](CC(=O)N1CCC[C@H]1[C@H](OC)[C@@H](C)C(=O)N[C@@H](Cc1ccccc1)c1nccs1)OC)N(C)C(=O)[C@@H](NC(=O)[C@H](C(C)C)N(C)C(=O)CCCCCN)C(C)C [Sample 28, Aminocaproyl-MMAD] (H-[Ahx][NMeV]V[Dil][Dolaproine]-Doe)",–,–,–,97.5 nM,146 nM,–
"CC[C@H](C)[C@@H]([C@@H](CC(=O)N1CCC[C@H]1[C@H](OC)[C@@H](C)C(=O)N[C@@H](Cc1ccccc1)c1nccs1)OC)N(C)C(=O)[C@@H](NC(=O)[C@H](C(C)C)N(C)C(=O)CCNC(=O)C(CCCCN)NC(C)=O)C(C)C (stereo partly drawn) [Sample 30, AcLys-β-Ala-MMAD] (Ac-[ξK][βAla][NMeV]V[Dil][Dolaproine]-Doe)",–,–,–,59.5 nM,98.5 nM,–
"CC[C@H](C)[C@@H]([C@@H](CC(=O)N1CCC[C@H]1[C@H](OC)[C@@H](C)C(=O)N[C@H](C)[C@@H](O)c1ccccc1)OC)N(C)C(=O)[C@@H](NC(=O)[C@H](C(C)C)N(C)C(=O)CCOCCOCCOCCN)C(C)C [Sample 33, Amino-PEG3-C2-MMAE] (H-[PEG3][NMeV]V[Dil][Dolaproine]-X2)",–,–,–,211 nM,–,258 nM
